Source: patent publication US20250313563A1, “GLYCOGEN SYNTHASE KINASE 3 INHIBITORS AND USES THEREOF” (The Broad Institute, Inc., priority 2022, published 2025)
pIC50: −log10 of the molar value. Entries after “also recorded” stand apart in the source; their conditions may differ. Like-named read-outs stand apart in the source and are kept apart here.

How the values were obtained:
[1] = biological target: GSK3α (Homo sapiens (Human), UniProt P49840); assay: AT8 (pS202/pThr205) tau phosphorylation FRET assay, GSK3α-transfected cells; type: cell-based; conditions: GSK3α and GSK3β transfected cells
Sequence of GSK3α (Homo sapiens (Human), UniProt P49840) (P49840 whole entry): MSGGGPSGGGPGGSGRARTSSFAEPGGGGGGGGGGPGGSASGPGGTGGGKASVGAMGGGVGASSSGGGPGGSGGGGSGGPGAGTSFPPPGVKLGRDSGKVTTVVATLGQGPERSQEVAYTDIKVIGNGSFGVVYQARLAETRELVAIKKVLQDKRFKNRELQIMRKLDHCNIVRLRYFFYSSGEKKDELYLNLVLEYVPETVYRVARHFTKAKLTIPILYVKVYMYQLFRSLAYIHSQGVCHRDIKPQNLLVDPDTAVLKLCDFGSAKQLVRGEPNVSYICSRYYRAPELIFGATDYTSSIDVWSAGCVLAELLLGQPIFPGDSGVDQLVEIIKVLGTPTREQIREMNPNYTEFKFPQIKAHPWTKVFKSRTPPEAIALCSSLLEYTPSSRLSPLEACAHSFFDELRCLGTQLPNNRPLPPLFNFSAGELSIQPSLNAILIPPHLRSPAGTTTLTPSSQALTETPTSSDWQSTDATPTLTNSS
Procedure: 293T cells stably expressing human 2N4R Tau were transfected with appropriate cDNA plasmids. 24 hours following transfection cells were treated with compound in a 10-point dose-response (from 1000× stocks of compound) and lysates harvested 2 hours later with cell extraction buffer (Life Technologies Cat #BN0001) or RIPA Buffer with Halt protease/phosphatase inhibitors added.
For AT8 assay: FRET antibodies (Custom designed Cisbio assay kit; S202/T205 Tb and total Tau D2 FRET antibodies) were added to lysate in a 384 well assay plate at 1:4 ratio (antibody/lysate). After antibody addition, the plate was left at room temperature for 60 minutes incubation time. Plate was read with appropriate wavelength settings using an Envision plate reader (ex320 and em620 and em665).

[2] = biological target: NanoLuc-GSK3α (Homo sapiens (Human), UniProt P49840); assay: NanoBRET residence time, GSK3α; type: cell-based; conditions: inhibitor at 10× IC50, BRET every 5 min for 3 hours
Sequence of NanoLuc-GSK3α (P49840 whole entry): as above

[3] = test system: tau phosphorylation at pThr231; assay: Rat developmental model of tau phosphorylation; type: in vivo, Sprague Dawley rats; conditions: P10 rats
Procedure: Sprague Dawley rats were bred in-house and litters were injected with compound, I.P. at post-natal day 10. Rats were then euthanized at indicated times following drug administration. For tissue collection, animals were euthanized via decapitation, brains were quickly removed, and bisected sagitally. The right cortex, was isolated, placed into 2 mL microtubes along with a single 5 mm stainless steel bead and the left cortex were placed into 2 mL Lysing Matrix A tubes (MP Biomedicals, Santa Ana, CA), Both tubes were immediately snap frozen in liquid nitrogen.
To determine whether a selective GSK3α inhibitor could also lower tau phosphorylation in a more physiological setting, 837646 was administered to rats at post-natal day 10. […] In the current experiment, 837646 was administered at 60, 20 and 10 mg/kg in P10 rats. The animals were sacrificed at several time points following treatment.

[4] = biological target: GSK3α (Rattus norvegicus (Rat), UniProt P18265); assay: In vivo target engagement assay (chemoproteomics, kinobeads), GSK3α; conditions: P10 rat cortex
Sequence of GSK3α (Rattus norvegicus (Rat), UniProt P18265) (P18265 whole entry): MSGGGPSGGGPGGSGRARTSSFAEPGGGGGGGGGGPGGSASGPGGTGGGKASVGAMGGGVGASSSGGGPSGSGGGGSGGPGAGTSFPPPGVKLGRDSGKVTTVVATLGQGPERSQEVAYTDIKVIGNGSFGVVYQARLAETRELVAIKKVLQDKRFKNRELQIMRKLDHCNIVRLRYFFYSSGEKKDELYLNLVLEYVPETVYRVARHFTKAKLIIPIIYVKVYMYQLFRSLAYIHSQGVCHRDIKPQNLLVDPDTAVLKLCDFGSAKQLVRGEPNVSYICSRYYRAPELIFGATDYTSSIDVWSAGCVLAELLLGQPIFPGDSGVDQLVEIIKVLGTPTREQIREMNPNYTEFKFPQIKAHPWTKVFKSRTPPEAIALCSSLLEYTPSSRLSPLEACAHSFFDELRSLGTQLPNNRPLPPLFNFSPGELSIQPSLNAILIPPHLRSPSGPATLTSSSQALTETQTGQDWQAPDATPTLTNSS
Procedure: (§1) Chemoproteomics competition was used to evaluate inhibitor selectivity and target engagement in vivo. Frozen cortexes were prepared for homogenization with 1.2 mL of Lysis Buffer (50 mM Tris-HCl, 0.8% NP-40 ((octylphenoxy poly(ethyleneoxy) ethanol)), 5% glycerol, 150 mM NaCl, 1.5 mM MgCl2, 25 mM NaF, 1 mM sodium vanadate, 1 mM DTT, pH 7.5 and supplemented with protease inhibitors). Tissues were homogenized in FastPrep-24 5G instrument at maximum oscillations for 20 seconds. The resulting brain homogenate was clarified by centrifugation for 1 h at 145 000 g, 4° C. The protein concentration of the supernatant was determined by BCA assay and each sample was diluted to final concentration of 5 mg/mL with lysis buffer. […] The dry peptide mixture was reconstituted in 15 μL of 0.1% trifluoro acetic acid and analyzed on ID nanoLC-MS/MS platform using a standardized 140 min method. Peptides were separated on an Easy-Spray column (75 μm×50 cm, PepMAP C18, 1.9 μm) at 250 nL/min, analyzed on a QExactive HF mass spectrometer at data dependent acquisition (DDA) mode with MS1 at 60,000 and MS2 at 15,000 resolution, respectively. […]
(§2) To measure direct target engagement of the compound for both GSK3α and GSK3β competitive chemoproteomics methodology was used. […] Enriched proteins were analyzed by liquid chromatography coupled with tandem mass spectrometry. […]

[5] = biological target: GSK3β (Rattus norvegicus (Rat), UniProt P18266); assay: In vivo target engagement assay (chemoproteomics, kinobeads), GSK3β; conditions: P10 rat cortex
Sequence of GSK3β (P18266 whole entry): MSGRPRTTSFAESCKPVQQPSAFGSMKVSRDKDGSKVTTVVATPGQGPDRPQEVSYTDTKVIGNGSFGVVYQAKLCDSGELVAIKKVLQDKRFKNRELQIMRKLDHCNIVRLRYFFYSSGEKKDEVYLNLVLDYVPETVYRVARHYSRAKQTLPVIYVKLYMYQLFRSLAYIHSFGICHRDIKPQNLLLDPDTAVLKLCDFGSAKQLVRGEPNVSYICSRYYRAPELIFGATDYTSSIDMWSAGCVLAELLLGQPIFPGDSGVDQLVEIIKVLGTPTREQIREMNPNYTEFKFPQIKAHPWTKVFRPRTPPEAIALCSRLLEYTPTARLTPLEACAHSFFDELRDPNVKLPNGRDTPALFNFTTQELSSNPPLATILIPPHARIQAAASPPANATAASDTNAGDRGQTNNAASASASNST
Procedure: as §1, §2

[6] = biological target: GSK3b (GST-full length GSK3b) (Homo sapiens (Human), UniProt P49841); assay: GSK3b TR-FRET kinase assay; type: biochemical; conditions: geometric mean, GMean
Sequence of GSK3b (GST-full length GSK3b) (P49841 whole entry): as the sequence (P18266 whole entry) above, with M240V, P390T, A392T, T400A, A402T counted along it
Summary of the method: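 IC50s came from the normalized 665/615 TR-FRET ratio after Tb-anti-pSer641 antibody and streptavidin-d2 detection of phosphorylated biotin-glycogen synthase peptide (200 nM). ATP was 4 μM for GSK3α, 2 μM for GSK3b, or 1 mM; 1 nM enzyme, 100 min, ambient, pH 7.5, after 30-min compound preincubation.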

[7] = three hours after dosing (Cmax, 60 mg/kg)

CCC1(c2cccc(C(F)(F)F)c2)C2=C(Nc3n[nH]cc31)C(F)C(C)(C)CC2=O (single isomer, unassigned) [Compound 837646, 4-ethyl-8-fluoro-7,7-dimethyl-4-(3-(trifluoromethyl)phenyl)-2,4,6,7,8,9-hexahydro-5H-pyrazolo[3,4-b]quinolin-5-one]
relative cellular potency and paralog selectivity at pS202/pThr205 (AT8) compared with pThr231 assay [1]: similar | residence time at GSK3α [2]: no difference in the residence time | tau phosphorylation at pThr231 vs vehicle, 24 hr ([3]; I.P., 20 or 60 mg/kg, 24 hr): significantly different from the vehicle group | tau phosphorylation at pThr231 vs vehicle, 3 hours ([3]; I.P., 60, 20 and 10 mg/kg, 3 hours after administration): significant lowering of tau phosphorylation at pThr231; also recorded: reduction in tau phosphorylation at Thr231 at all doses tested | target engagement at GSK3α, 24 hr ([4]; 24 hr, both 60 mg/kg and 20 mg/kg): ~50% | target engagement for GSK3α, 3 hours [4, 7]: over 90% | binding to GSK3β, 24 hr ([5]; 24 hr): no significant binding detected | target engagement for GSK3β, 3 hours [5, 7]: 40% | pIC50 ([6]; 1 nM GSK3b, 2 μM ATP, 30 minute preincubation, read-out: GSK3-B TR-FRET BIOCHEMICAL (TR-FRET), IC50): ≥ 7.00 | pIC50 ([6]; GSK3-B (TR-FRET 1 mM ATP), IC50, 1 mM ATP): 5.30 to 6.00
